{"source": "paper PMC9697519", "about": "“New Theonellapeptolides from Indonesian Marine Sponge Theonella swinhoei as Anti-Austerity Agents” (Marine Drugs, 2022)", "key": {"[1]": {"system": "MIA PaCa-2 cells", "experiment": "Time-lapse live imaging under NDM", "assay_type": "cell-based, human", "settings": "10 μM in NDM, 37 °C, 5% CO2, imaged 24 h", "protocol": "Thus, more detailed studies were performed on the major compound theonellapeptolide IId (4). Its effect on morphology status of MIA PaCa-2 cells under starvation condition was studied using a double-staining assay with EB (ethidium bromide) and AO (acridine orange). The membranes of dead or dying cells are penetrated by EB and staining in red while living cells are stained by AO, a cell-membrane-permeable dye emitting bright green fluorescence. Both AO and EB stains are known as DNA-intercalating agents. During cell death, EB and AO enter into the cell after the integrity of the cell membrane is disrupted, which facilitates the emission of orange fluorescence. In this study, MIA PaCa-2 cells treated with 5 and 10 μM of theonellapeptolide IId (4) were incubated in starvation condition (NDM) for 24 h, and stained with the EB and AO dyes. In Figure 6A, treatment with 4 led to a dose-dependent increase in EB-stained cells emitting red fluorescence and showing drastic alteration of cell morphology. […] To show the details of cell death in real time, live evidence of the anticancer potential of 4 was studied. A time-lapse live imaging anti-pancreatic cancer experiment under NDM condition was performed for the first time in a multi position in the dish, for monitoring the effect of 4. Moreover, MIA PaCa-2 cells were treated with 10 μM of compound 4 in NDM and incubated at 37 °C at 5% CO2. Real-time anti-austerity potential tracking of 4 showing morphological changes in MIA PaCa-2 cells under NDM was monitored using a Nikon sCMOS camera oxford instrument, Hamamatsu Photonics/Ti-E, for 24 h. Images were captured every 10 min by rotating at several fixed positions in the dish under the phase contrast mode on a CCD Camera imaging system for 24 h. Treatment with 4 under NDM inhibited cell mobility immediately within 60 min and altered morphology of MIA PaCa-2 cells after 4 h was observed, then cell death started after 8 h, finally in 12 h complete cell death was observed (Figure 7, Movies S1 and S2, Supporting Information). In the control, MIA PaCa-2 cells survived 24 h until the end of the experiment in the NDM (Figure 7). Thus, the result of this study provided the first simultaneous multi-site live evidence of the anti-pancreatic cancer therapeutic potential of the compound theonellapeptolide IId (4) against MIA PaCa-2 cells as marine-based anti-austerity agents. […]\nReal-time anti-austerity potential tracking anti-pancreatic cancer activity of 4 by showing morphological changes in MIA PaCa-2 cells under NDM was monitored using a Nikon sCMOS camera Oxford instrument, Hamamatsu Photonics/Ti-E, for 24 h. […]"}, "[2]": {"system": "MIA PaCa-2 cells", "experiment": "Colony formation assay", "assay_type": "cell-based, human", "settings": "then fresh DMEM 10 days, 500 cells/well, three replicates", "protocol": "Figure 6 (A) Morphological changes of MIA PaCa-2 cells induced by 4 in a nutrient-deprived medium (NDM). MIA PaCa-2 tumor cells were treated with 4 at the indicated concentrations in NDM in a 24-well plate and incubated for 24 h. The cells were stained with ethidium bromide (EB) and acridine orange (AO), and photographed in the fluorescence (red and green) under phase contrast modes using a Nikon sCMOS camera oxford instrument, Hamamatsu Photonics/Ti-E. (B) Structure of bioactive compound 4. (C) Effect of 4 on colony formation by MIA PaCa-2 cells in DMEM. (a) Graph showing the average values of the area occupied by MIA PaCa-2 cell colonies (three replicates). **** p < 0.0001 compared to the untreated control group. (b) Representative wells showing colonies of MIA PaCa-2 cells.\nPancreatic cancer cells have a great ability to migrate to surrounding tissues, growing and forming new colonies after metastasis in distant organs with sufficient nutrition. These processes are responsible for the majority of deaths from pancreatic cancer. The phenomenon is called “colonization”, and occurs during cancer metastasis. Migrating pancreatic cancer cells are likely to form small colonies (micrometastases), which then become large tumors. The discovery of potential inhibitors of the colony-forming ability of pancreatic cancer represents a promising approach to prevent pancreatic tumor metastasis. […] Therefore, theonellapeptolides isolated from marine origin were studied for their ability to inhibit MIA PaCa-2 colony formation. MIA PaCa-2 cells (500 cells/well) were placed in a 24-well plate and treated with 4 at 12.5, 25, and 50 μM (non-cytotoxic concentrations) in DMEM for 24 h.\nSubsequently, the medium was replaced with fresh DMEM, and the cells were allowed to grow as colonies for 10 days in a humified CO2 incubator at 37 °C. […]\nColony Formation inhibitory effect of 4 at different concentrations against MIA PaCa-2 cells was determined as described previously."}}, "note": "Where a SMILES comes first, the peptide text is derived from it. Bridges are numbered along the chain shown (N, C = ends). [ ]: non-standard residue; d: D form. The star is where a group is joined. dNMeaIle = CC[C@H](C)[C@@H](NC)C(=O)O; d(aIle) = CC[C@H](C)[C@@H](N)C(=O)O; NMeI = CC[C@H](C)[C@H](NC)C(=O)O; dNMeL = CN[C@H](CC(C)C)C(=O)O; NMeV = CN[C@H](C(=O)O)C(C)C; Methoxyacetyl = COCC(=O)*; βAla = NCCC(=O)O"}
{"smiles": "CC[C@H](C)[C@H]1C(=O)NCCC(=O)N[C@H]([C@@H](C)CC)C(=O)N(C)[C@@H](C(C)C)C(=O)N[C@@H](C)C(=O)NCCC(=O)N[C@H](CC(C)C)C(=O)N(C)[C@H]([C@@H](C)CC)C(=O)O[C@H](C)[C@H](NC(=O)[C@@H](CC(C)C)N(C)C(=O)[C@@H](NC(=O)COC)C(C)C)C(=O)NCCC(=O)N[C@H](CC(C)C)C(=O)N1C", "note": "[Compound 4, theonellapeptolide IId] (Methoxyacetyl-V[dNMeL]T[βAla][dL][NMeI][βAla][d(aIle)][NMeV]A[βAla][dL][dNMeaIle]; ester 3-C)", "values": [{"measurement": "time after which altered cell morphology was observed", "setting": "[1]", "result": 4, "unit": "h"}, {"measurement": "time after which cell death started", "setting": "[1]", "result": 8, "unit": "h"}, {"measurement": "time to complete cell death", "setting": "[1]", "result": 12, "unit": "h"}, {"measurement": "time to inhibition of cell mobility", "setting": "[1]", "result": "≤ 60", "unit": "min"}, {"measurement": "total well area occupied by colonies", "setting": "[2]; 12.5 μM in DMEM for 24 h", "result": 100, "unit": "%"}, {"measurement": "colony formation", "setting": "[2]; 25 μM in DMEM for 24 h", "result": "total inhibition of colony formation"}, {"measurement": "colony formation", "setting": "[2]; 50 μM in DMEM for 24 h", "result": "total inhibition of colony formation"}]}
